Experimental data reported in patent publication US4593093A, “Acyl derivatives” (priority 1980, dated 1986).
Where a name gives a salt, the structure may show the parent alone. Read-outs that look alike come from different tables or passages of the source.

Columns and labels:
Enterobacter aerogenes = test: Activity in vitro: minimum inhibitory concentration; assay type: cell-based; details: Klebsiella aerogenes
Escherichia coli [1] = test: as above; assay type: cell-based
Pseudomonas aeruginosa [2] = test: Activity in vivo: survival of intraperitoneally infected mice; details: sc, 96 h; mice infected i.p. with Pseudomonas aeruginosa; s.c. three times, 1 h, 3 h and 5 h after infection; survival on 4th day; read-out: CD50 (dosage at which 50% of the animals survive)
Experimental: (§1) Groups of 5 mice are infected intraperitoneally with an aqueous suspension of various pathogens. The test substance in physiological sodium chloride solution is administered subcutaneously twice, i.e. 1 hour and 3 hours after the infection. The number of surviving animals is determined on the 4th day. Various dosages are administered and that dosage at which 50% of the experimental animals survive (CD50, mg/kg) is determined by interpolation.
*Administered subcutaneously three times: 1 hour, 3 hours and 5 hours

Proteus morganii = test: Activity in vitro: minimum inhibitory concentration; assay type: cell-based; details: Morganella morganii
Toxicity, LD50 = details: in vivo
Staphylococcus aureus = test: Activity in vitro: minimum inhibitory concentration; assay type: cell-based
Klebsiella pseumoniae = test: as above; assay type: cell-based
Streptococcus pyogenes [3] = test: as above; assay type: cell-based
Enterobacter cloacae [4] = test: as above; assay type: cell-based
Proteus inconstans = test: as above; assay type: cell-based; details: Providencia alcalifaciens
Proteus mirabilis = test: as above; assay type: cell-based
Pseudomonas aeruginosa [5] = test: as above; assay type: cell-based
Proteus rettgeri = test: as above; assay type: cell-based; details: Providencia rettgeri
Escherichia coli [6] = test: Activity in vivo: survival of intraperitoneally infected mice; details: sc, 96 h; mice infected i.p. with Escherichia coli; s.c. twice, 1 h and 3 h after infection; survival on 4th day; read-out: CD50 (dosage at which 50% of the animals survive)
Experimental: as §1

Enterobacter cloacae [7] = test: as above; details: sc, 96 h; mice infected i.p. with Enterobacter cloacae; s.c. twice, 1 h and 3 h after infection; survival on 4th day; read-out: CD50 (dosage at which 50% of the animals survive)
Experimental: as §1

Haemophilus influenzae = test: as above; details: sc, 96 h; mice infected i.p. with Haemophilus influenzae; s.c. twice, 1 h and 3 h after infection; survival on 4th day; read-out: CD50 (dosage at which 50% of the animals survive)
Experimental: as §1

Streptococcus pyogenes [8] = test: as above; details: sc, 96 h; mice infected i.p. with Streptococcus pyogenes; s.c. twice, 1 h and 3 h after infection; survival on 4th day; read-out: CD50 (dosage at which 50% of the animals survive)
Experimental: as §1

Serratia marcescens [9] = test: as above; details: sc, 96 h, 1 h and 3 h after infection, survival on 4th day, read-out: CD50 (dosage at which 50% of the animals survive)
Experimental: as §1

Staphylococcus epidermis = test: Activity in vitro: minimum inhibitory concentration; assay type: cell-based
Streptococcus viridans = test: as above; assay type: cell-based
Serratia marcescens [10] = test: as above; assay type: cell-based
Streptococcus faecalis = test: as above; assay type: cell-based; details: Enterococcus faecalis
Citrobacter freundii = test: as above; assay type: cell-based
Streptococcus pneumoniae = test: as above; assay type: cell-based
[11] = Enterobacter aerogenes strain 1
[12] = Enterobacter aerogenes strain 2
[13] = Streptococcus pyogenes strain 1, read-out: Minimum inhibitory concentration
[14] = Pseudomonas aeruginosa strain 1
[15] = Pseudomonas aeruginosa strain 2
[16] = Pseudomonas aeruginosa strain 3
[17] = mice infected i.p. with Serratia marcescens strain 1, s.c. twice
[18] = Streptococcus faecalis strain 1
[19] = Streptococcus faecalis strain 2

Compound: CO/N=C(\C(=O)N[C@@H]1C(=O)N2C(C(=O)O)=C(C)CS[C@H]12)c1c[se]c(N)n1 [Product F, (6R, 7R)-7-[2-(2-amino-4-selenazolyl)-2-[(Z)-methoxyimino]-acetamido]-3-methyl-3-oxo-5-thia-1-azabicyclo[4.2.0]oct-2-ene-2-carboxylic acid sodium salt]
- MIC (Enterobacter aerogenes; [11]): 0.2 µg/mL
- MIC (Enterobacter aerogenes; [12]): 0.2 µg/mL
- MIC (Escherichia coli [1]; Escherichia coli strain 1): 0.8 µg/mL
- MIC (Escherichia coli [1]; Escherichia coli strain 2): 0.05 µg/mL
- MIC (Escherichia coli [1]; Escherichia coli strain 3): 12.5 µg/mL
- MIC (Escherichia coli [1]; Escherichia coli strain 4): 100 µg/mL
- MIC (Escherichia coli [1]; Escherichia coli strain 5): 3.1 µg/mL
- ED50 (Pseudomonas aeruginosa [2]): > 200 mg/kg
- MIC (Proteus morganii): 50 µg/mL
- LD50 (Toxicity, LD50; po): > 5000 mg/kg
- LD50 (Toxicity, LD50; sc): > 4000 mg/kg
- MIC (Staphylococcus aureus; Staphylococcus aureus strain 1): 50 µg/mL
- MIC (Staphylococcus aureus; Staphylococcus aureus strain 2): 100 µg/mL
- MIC (Staphylococcus aureus; Staphylococcus aureus strain 3): 50 µg/mL
- MIC (Staphylococcus aureus; Staphylococcus aureus strain 4): 100 µg/mL
- MIC (Klebsiella pseumoniae; Klebsiella pseumoniae strain 1): 0.2 µg/mL
- MIC (Klebsiella pseumoniae; Klebsiella pseumoniae strain 2): 0.05 µg/mL
- MIC (Klebsiella pseumoniae; Klebsiella pseumoniae strain 3): 0.05 µg/mL
- MIC (Streptococcus pyogenes [3]; [13]): 3.1 µg/mL
- MIC (Streptococcus pyogenes [3]; Streptococcus pyogenes strain 2, read-out: Minimum inhibitory concentration): 0.05 µg/mL
- MIC (Enterobacter cloacae [4]; Enterobacter cloacae strain 1): > 200 µg/mL
- MIC (Enterobacter cloacae [4]; Enterobacter cloacae strain 2): 25 µg/mL
- MIC (Enterobacter cloacae [4]; Enterobacter cloacae strain 3): > 200 µg/mL
- MIC (Proteus inconstans): ≤ 0.025 µg/mL
- MIC (Proteus mirabilis; Proteus mirabilis strain 3): 0.1 µg/mL
- MIC (Proteus mirabilis; Proteus mirabilis strain 4): 0.8 µg/mL
- MIC (Proteus mirabilis; Proteus mirabilis strain 5): 0.4 µg/mL
- MIC (Pseudomonas aeruginosa [5]; [14]): > 200 µg/mL
- MIC (Pseudomonas aeruginosa [5]; [15]): > 200 µg/mL
- MIC (Pseudomonas aeruginosa [5]; [16]): 200 µg/mL
- MIC (Proteus rettgeri): 0.1 µg/mL
- ED50 (Escherichia coli [6]): 0.06 mg/kg
- ED50 (Enterobacter cloacae [7]): > 25 mg/kg
- ED50 (Haemophilus influenzae): 4 mg/kg
- ED50 (Streptococcus pyogenes [8]): < 0.05 mg/kg
- ED50 (Serratia marcescens [9]; [17]): 0.59 mg/kg
- ED50 (Serratia marcescens [9]; mice infected i.p. with Serratia marcescens strain 2, s.c. twice): 5.1 mg/kg
- MIC (Staphylococcus epidermis): 100 µg/mL
- MIC (Streptococcus viridans): 12.5 µg/mL
- MIC (Serratia marcescens [10]; Serratia marcescens strain 1): 3.1 µg/mL
- MIC (Serratia marcescens [10]; Serratia marcescens strain 2): 6.3 µg/mL
- MIC (Serratia marcescens [10]; Serratia marcescens strain 3): 0.4 µg/mL
- MIC (Streptococcus faecalis; [18]): > 200 µg/mL
- MIC (Streptococcus faecalis; [19]): > 200 µg/mL
- MIC (Citrobacter freundii; Citrobacter freundii strain 1): 200 µg/mL
- MIC (Citrobacter freundii; Citrobacter freundii strain 2): 1.6 µg/mL
- MIC (Streptococcus pneumoniae): 12.5 µg/mL

Compound: CO/N=C(\C(=O)N[C@@H]1C(=O)N2C(C(=O)[O-])=C(CSc3n[nH]c(=O)c(=O)n3C)CS[C@H]12)c1c[se]c(N)n1.[Na+] [Product G, (6R, 7R)-7-[2-(2-amino-4-selenazolyl)-2-[(Z)-methoxyimino]-acetamido]-8-oxo-3-[[(1,4,5,6-tetrahydro-4-methyl-5,6-dioxo-as-triazin-3-yl)thio]methyl]-5-thia-1-azabicyclo[4.2.0]oct-2-ene-2-carboxylic acid sodium salt]
- MIC (Enterobacter aerogenes; [11]): 0.1 µg/mL
- MIC (Enterobacter aerogenes; [12]): 0.1 µg/mL
- MIC (Escherichia coli [1]; Escherichia coli strain 1): 0.05 µg/mL
- MIC (Escherichia coli [1]; Escherichia coli strain 2): 0.012 µg/mL
- MIC (Escherichia coli [1]; Escherichia coli strain 3): 0.2 µg/mL
- MIC (Escherichia coli [1]; Escherichia coli strain 4): 0.2 µg/mL
- MIC (Escherichia coli [1]; Escherichia coli strain 5): 0.2 µg/mL
- ED50 (Pseudomonas aeruginosa [2]): > 200 mg/kg
- MIC (Proteus morganii): 0.05 µg/mL
- LD50 (Toxicity, LD50; po): > 5000 mg/kg
- LD50 (Toxicity, LD50; sc): > 4000 mg/kg
- MIC (Staphylococcus aureus; Staphylococcus aureus strain 1): 0.4 µg/mL
- MIC (Staphylococcus aureus; Staphylococcus aureus strain 2): 1.6 µg/mL
- MIC (Staphylococcus aureus; Staphylococcus aureus strain 3): 0.8 µg/mL
- MIC (Staphylococcus aureus; Staphylococcus aureus strain 4): 0.8 µg/mL
- MIC (Klebsiella pseumoniae; Klebsiella pseumoniae strain 1): 0.1 µg/mL
- MIC (Klebsiella pseumoniae; Klebsiella pseumoniae strain 2): 0.025 µg/mL
- MIC (Klebsiella pseumoniae; Klebsiella pseumoniae strain 3): 0.05 µg/mL
- MIC (Streptococcus pyogenes [3]; [13]): 0.05 µg/mL
- MIC (Enterobacter cloacae [4]; Enterobacter cloacae strain 1): > 100 µg/mL
- MIC (Enterobacter cloacae [4]; Enterobacter cloacae strain 2): 0.8 µg/mL
- MIC (Enterobacter cloacae [4]; Enterobacter cloacae strain 3): 50 µg/mL
- MIC (Proteus inconstans): 0.006 µg/mL
- MIC (Proteus mirabilis; Proteus mirabilis strain 3): 0.4 µg/mL
- MIC (Proteus mirabilis; Proteus mirabilis strain 4): 0.025 µg/mL
- MIC (Proteus mirabilis; Proteus mirabilis strain 5): 0.025 µg/mL
- MIC (Pseudomonas aeruginosa [5]; [14]): 50 µg/mL
- MIC (Pseudomonas aeruginosa [5]; [15]): 50 µg/mL
- MIC (Pseudomonas aeruginosa [5]; [16]): 25 µg/mL
- MIC (Proteus rettgeri): 0.05 µg/mL
- ED50 (Escherichia coli [6]): < 0.003 mg/kg
- ED50 (Enterobacter cloacae [7]): 9.2 mg/kg
- ED50 (Haemophilus influenzae): 0.25 mg/kg
- ED50 (Streptococcus pyogenes [8]): 0.02 mg/kg
- ED50 (Serratia marcescens [9]; [17]): 0.2 mg/kg
- MIC (Staphylococcus epidermis): 0.8 µg/mL
- MIC (Streptococcus viridans): 0.8 µg/mL
- MIC (Serratia marcescens [10]; Serratia marcescens strain 1): 0.2 µg/mL
- MIC (Serratia marcescens [10]; Serratia marcescens strain 2): 0.4 µg/mL
- MIC (Serratia marcescens [10]; Serratia marcescens strain 3): 0.1 µg/mL
- MIC (Streptococcus faecalis; [18]): 25 µg/mL
- MIC (Streptococcus faecalis; [19]): 50 µg/mL
- MIC (Citrobacter freundii; Citrobacter freundii strain 1): 1.6 µg/mL
- MIC (Citrobacter freundii; Citrobacter freundii strain 2): 0.1 µg/mL
- MIC (Streptococcus pneumoniae): 0.1 µg/mL
